Read-outs that look alike come from different tables or passages of the source.
Legend:
[1] = Penicillin-G-amidase-mediated kinetic analysis of elimination at physiological pH (HPLC); format: physicochemical; conditions: pH 7.4, 37 °C
Method: Stocks of 2-phenylacetyl-para-aminobenzyl ketol were made up in DMF at a concentration of 10 mM. For a reaction, 17.5 µl of ketol stock was added to 17.5 µl of a 10 mM stock of internal standard in DMF and 310 µl of PBS at pH 7.4. To initiate a reaction, 5 µl of a suspension of penicillin G amidase (PenG, Sigma-Aldrich enzyme 76427, 5–10 U mg^−1) was added. In control samples 5 µl of PBS was added in place of the enzyme. Test and control samples were then incubated at 37 °C with shaking. At the recorded time points, 20 µl aliquots of the reactions were analysed by HPLC (254 nm, ThermoFisher U3000). HPLC column: Phenomenex Kinetex C18, 5 µm, 50 × 4.6 mm, 100 Å; flow, 1 ml min^−1. Gradient and solvent system for assay with 2-phenylacetyl-PAB-PhQ 21: A = H2O, B = acetonitrile, t = 0–1 min 0% B, t = 1–10 min 0–100% B, t = 10–11 min 0% B. Gradient and solvent system for assay with 2-phenylacetyl-PAB-BL 22 and 2-phenylacetyl-PAB-DN 23: A = H2O + 0.1% formic acid, B = acetonitrile + 0.1% formic acid, t = 0–1 min 0% B, t = 1–10 min 0–40% B, t = 10–16 min 40–50% B, t = 16.1 min 100% B, t = 16.1–18 min 100% B, t = 18–20 min 0% B. Peaks were identified by LC–MS analysis and comparison with pure compounds. Values described represent peak area (mAU × min) divided by peak area of internal standard. Recorded values are averages of three independent reactions and error bars display standard errors of the mean. Fitting was performed using GraphPad Prism 8 software. Rate and half-life measurements were calculated by consumption of intermediate para-aminobenzyl ketol and formation of product quinone.

[2] = pH-rate aqueous kinetic analysis of fragmentation (HPLC); format: physicochemical; conditions: for kobs of elimination at pH 6: pH 6, 37 °C; for kobs of elimination at pH 6 / kobs of elimination at pH 3: citrate-phosphate buffer; for kobs of elimination at pH 3: pH 3, 37 °C
Method: pH-rate analysis was performed by adaption of the PenG assay. To obtain deprotected para-aminobenzyl ketol species, 2-phenylacetyl protected ketol was dissolved in PBS with 33% DMF to a concentration of 3.3 mM. Then 20 µl of a stock solution of PenG was added to 600 µl of this stock and incubated for 20 min at 37 °C, after which 20 µl of a 100 mM stock of internal standard in DMSO was added. Reactions were then set up immediately. For a reaction, 10 µl of the aminobenzyl ketol/standard stock was added to 190 µl of citrate–phosphate buffer at the specified pH to obtain an aqueous solution containing 1.8% DMSO. Test samples were incubated at 37 °C with shaking. At the recorded time points, 20 µl aliquots of the reactions were analysed by HPLC (254 nm, ThermoFisher U3000). HPLC conditions: column Phenomenex Kinetex C18 5 µm, 50 × 4.6 mm, 100 Å; solvent system A = H2O + 0.1% formic acid, B = acetonitrile + 0.1% formic acid; flow, 1 ml min^−1. Gradient for assay with PAB-PhQ 7: t = 0–1 min 0% B, t = 1–10 min 0–100% B, t = 10–11 min 0% B. Gradient for assay with PAB-BL 10 and PAB-DN 18: t = 0–1 min 0% B, t = 1–10 min 0–40% B, t = 10–16 min 40–50% B, t = 16.1 min 100% B, t = 16.1–18 min 100% B, t = 18–20 min 0% B. Values described represent peak area (mAU × min) divided by peak area of internal standard. Where necessary, peaks were deconvoluted using Origin fitting software. Recorded values are averages of three independent reactions and error bars display standard errors of the mean. Values were fitted using GraphPad Prism software. Rate and half-life measurements were calculated based on consumption of the para-aminobenzyl ketol species.

[3] = 1H NMR kinetic analysis of elimination of PAB-PhQ in MeOD; format: physicochemical
Method: Kinetics of the release of PhQ 4 from PAB-PhQ 7 were monitored by ^1H NMR at 25 °C. Analysis was performed in MeOD due to poor solubility of the compound in H2O. To form the active eliminating species, Boc-PAB-PhQ 6 was dissolved in dichloromethane/trifluoroacetic acid 4:1 at 0 °C and stirred for 30 min, upon which the reaction appeared complete by TLC. Product 7 was dried in vacuo before being dissolved in MeOD. The basicity of the solution was altered by addition of triethylamine (drops). pH was estimated using pH paper. pH values are only indicative because analysis is performed in MeOD. Elimination rates were determined from the aromatic region. Kinetics were measured by monitoring the integral of one peak, normalized to the number of protons present (that is, the integral of 1H), divided by the total integral of the aromatic region (δ = 6.2–8.6 ppm, that is, the integral of 12 H). Analysis was performed using Mestrenova v.14.2.0 processing software and rate constants were calculated using GraphPad Prism v.8.0 software.

[4] = test system: ovine blood; assay: Methaemoglobin analysis in ovine blood; parameters: species or system sheep; conditions: in vitro ovine blood model, 1 h incubation
Method: Defibrinated Oxoid sheep’s blood (ThermoScientific) was diluted to a 5% v/v suspension in PBS pH 7.4. In a 96-well microtitre plate, 150 µl of blood suspension was added to 50 µl of serially diluted compound in PBS containing a 4× stock of each compound of interest. Serial dilution of compounds from DMSO stocks into PBS was performed to achieve an in-plate DMSO concentration of 0.1%. PBS buffer alone was used as a negative control. The plate was incubated for the specified time at 37 °C. The plate was then centrifuged at 3,500 r.p.m. for 5 min. The supernatant was removed and cells lysed by resuspension in 100 µl of a solution of Triton-X-100 (1%) in PBS. Following this, 80 µl of lysed cell contents were transferred to a second microtitre plate for ultraviolet measurement. Ultraviolet absorbance was measured immediately at 630 nm (MiniMax i3x Imager, Molecular Devices). Methaemoglobin increase was determined by A630−A6300/A6300×100 , where A630 is the absorbance of the test well at 630 nm, and A6300 is the absorbance of the negative control at 630 nm.

[5] = target: T1, recombinant human 5-LO (Homo sapiens, UniProt P09917); assay: Cell-free activity assay for recombinant human 5-LO; format: biochemical
T1 construct: made in house; host or cells: Escherichia coli BL21
T1 sequence (P09917 1-674): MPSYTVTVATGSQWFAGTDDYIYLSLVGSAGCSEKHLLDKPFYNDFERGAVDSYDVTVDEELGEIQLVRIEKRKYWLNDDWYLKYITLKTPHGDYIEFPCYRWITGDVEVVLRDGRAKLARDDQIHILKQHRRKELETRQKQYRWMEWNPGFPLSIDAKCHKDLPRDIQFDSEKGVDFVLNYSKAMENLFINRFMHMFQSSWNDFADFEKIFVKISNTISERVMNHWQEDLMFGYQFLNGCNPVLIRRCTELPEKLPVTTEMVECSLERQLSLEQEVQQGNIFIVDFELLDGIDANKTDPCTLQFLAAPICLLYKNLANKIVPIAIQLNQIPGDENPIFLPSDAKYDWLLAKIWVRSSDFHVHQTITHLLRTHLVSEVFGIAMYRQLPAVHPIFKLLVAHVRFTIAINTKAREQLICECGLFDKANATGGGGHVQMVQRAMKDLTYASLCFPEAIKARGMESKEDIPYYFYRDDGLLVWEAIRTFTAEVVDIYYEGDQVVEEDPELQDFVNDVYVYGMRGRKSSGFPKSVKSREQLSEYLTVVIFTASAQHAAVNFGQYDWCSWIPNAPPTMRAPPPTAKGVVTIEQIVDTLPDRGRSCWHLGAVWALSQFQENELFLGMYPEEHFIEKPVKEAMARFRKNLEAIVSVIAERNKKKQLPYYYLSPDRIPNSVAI
Method: Escherichia coli (BL21) was transformed with pT3-5-LO plasmid, and recombinant 5-LO protein was expressed at 30 °C as described. Cells were lysed in 50 mM triethanolamine/HCl pH 8.0, 5 mM EDTA, 1 mM phenylmethanesulfonyl fluoride, soybean trypsin inhibitor (60 μg ml^−1) and lysozyme (1 mg ml^−1), homogenized by sonication (3 × 15 s) and centrifuged at 40,000g for 20 min at 4 °C. The 40,000g supernatant (S40) was applied to an ATP–agarose column to partially purify 5-LO as described. Aliquots of semipurified 5-LO (0.5 μg) were diluted with 1 ml ice-cold PBS containing 1 mM EDTA. Samples were preincubated with the test compound or vehicle (0.1% DMSO) with or without 1 mM DTT, as indicated. After 10 min at 4 °C, samples were prewarmed for 30 s at 37 °C, and 2 mM CaCl2 plus 20 μM arachidonic acid was added to start the formation of 5-LO products. After 10 min, the reaction was stopped by addition of 1 volume of ice-cold methanol, and the formed 5-LO products were analysed by reverse-phase HPLC as described. 5-LO products include the all-trans isomers of LTB4 (trLTB4 isomers) and 5(S)-hydroperoxy-6-trans-8,11,14-cis-eicosatetraenoic acid and its corresponding alcohol 5(S)-hydroxy-6-trans-8,11,14-cis-eicosatetraenoic acid.

[6] = In vitro redox-cycling phenol red/horseradish peroxidase reporter assay; conditions: phenol red/HRP with DTT, up to 25 μM
Method: The in vitro redox-cycling capability of compounds was assessed by phenol red/horseradish peroxidase (HRP) assay by adaption of a previously described protocol. Briefly, stocks were prepared as follows: (1) DTT to a concentration of […] in PBS pH 7.4 buffer; (2) compound stocks in PBS pH 7.4 buffer to 3× the desired concentration by 1,000× dilution of DMSO stocks; (3) a stock of phenol red/HRP detection reagent containing 300 µg ml^−1 phenol red and 180 µg ml^−1 HRP enzyme in PBS pH 7.4 buffer; (4) a stock of 1 M NaOH in water; (5) a stock of 100 µM H2O2 in PBS prepared by addition of a 30% solution of H2O2 in water into 1,000 µl of PBS. Into each well of a 96-well clear flat-bottomed plate was then added 40 µl of compound stock in PBS followed by 40 µl of DTT stock, followed immediately by 40 µl of phenol red/HRP reagent. A positive control with 100 µM H2O2 added in place of compound was included. The plate was incubated in the dark at room temperature for 15 min. Following this, 20 µl of 1 M NaOH was added to each well to terminate the reaction. Absorbance was immediately measured at 610 nm (MiniMax i3x Imager, Molecular Devices). Absorbance of treated wells was normalized to control wells treated with PBS only (zero redox cycling).

[7] = test system: AML cell line MOLM-13; assay: Viability assay with small-molecule prodrugs, MOLM-13; format: cell-based; conditions: 5 µM, 24 h
Method: For assays assessing cytotoxicity of β-lapachone versus small-molecule prodrugs, antibodies and ADCs, suspension cells were plated into 24-well plates at a density of 2.5 × 10^5 cells ml^−1 in 240 µl. Stocks of ADC or antibody in PBS were normalized to 12.5 µM. Serial dilutions of compound were made up in PBS. Then, 60 µl of each stock of either PBS or compound in PBS was added to the cells to achieve the desired final concentration. After the specified incubation time, toxicity was assessed by counting of live cells using the trypan blue exclusion method with a Countess II Automated Cell Counter (ThermoFisher Scientific) according to the manufacturer’s instructions. Cell viability was determined by dividing the average live cell number of treated wells by the average live cell number for control wells treated with PBS only. IC50 values were calculated using GraphPad Prism software. Note: for the assay performed over 96 h, 5% human serum was added to media instead of 10% fetal bovine serum, to limit non-specific antibody internalisation. This had little effect on ADC toxicity.

[8] = 25 °C, moderately acidic methanolic solution

2-phenylacetyl-PAB-PhQ [Compound 21]
kobs, formation of PhQ 4 following addition of penicillin G amidase to 21 [1]: 1.15 ± 0.66 × 10^–5 s^–1 | stability without added enzyme ([1]; no penicillin G amidase): stable

Nc1ccc(CC2(O)C(=O)c3ccccc3-c3ccccc32)cc1 (stereo not drawn) [Compound 7, para-aminobenzyl phenanthrene-ketol]
kobs, elimination of 7 ([1]; 7 generated enzymatically from 21): 9.72 ± 2.88 × 10^–6 s^–1 | pH at which elimination rate peaks ([2]; 37 °C): 5–6 | kobs of elimination at pH 6 [2]: 1.7 ± 0.3 × 10^–5 s^–1 | kobs, rate of consumption of 7 [3, 8]: 6.18 ± 0.12 × 10^–5 s^–1 | kobs, rate of formation of product 4 from 7 [3, 8]: 6.55 ± 0.22 × 10^–5 s^–1 | time to complete release of 4 from 7 [3, 8]: ≤ 20 h | completeness of release of 4 from 7 ([3]; basic conditions): not complete after 40 h | kobs, appearance of 4 from 7 ([3]; basic conditions, MeOD with triethylamine): 1.16 ± 0.18 × 10^–6 s^–1

CC1(C)CCC2=C(O1)c1ccccc1C(O)(Cc1ccc(N)cc1)C2=O (stereo not drawn) [Compound 10]
pH at which elimination rate peaks ([2]; 37 °C): 3 | kobs of elimination at pH 3 [2]: 1.1 ± 0.1 × 10^–5 s^–1 | kobs of elimination at pH 6 [2]: 2.1 ± 0.8 × 10^–7 s^–1 | elimination resulting in formation of 1 ([2]; pH ≥6, within 72 h, 37 °C): Negligible

CC1OC2=C(C(=O)C(O)(Cc3ccc(N)cc3)c3ccccc32)C1(C)C (stereo not drawn) [Compound 18]
kobs of elimination at pH 3 [2]: 9.1 ± 0.2 × 10^–6 s^–1 | kobs of elimination at pH 6 [2]: 7.4 ± 1.1 × 10^–7 s^–1

CC1(C)CCc2c3c(c4ccccc4c2O1)OCCO3 [Compound 25]
methaemoglobin formation [4]: did not occur | IC50 ([5]; with DTT (1 mM), read-out: IC50, 5-LO inhibition with DTT): 11.5 ± 2.2 µM | IC50 ([5]; without DTT, read-out: IC50, 5-LO inhibition without DTT): 11.3 ± 1.1 µM | in vitro redox activity [6]: no measurable redox activity

CC(=O)Oc1c2c(c3ccccc3c1OC(C)=O)OC(C)(C)CC2 [Compound 29]
toxicity to MOLM-13 at 5 µM [7]: complete cell death
